This passage reports IC50 and Ki results from ChEMBL document CHEMBL1909046, “DrugMatrix in vitro pharmacology data”.

In general, IC50 refers to the concentration needed to halve the response being measured.

In experiment [1] the target is C-C chemokine receptor type 2 (Homo sapiens, UniProt P41597). It is filed as cell membranes, CHO-K1, Membrane. Conditions: cho-k1. Further: in other assays of this panel Not Active means under 50% inhibition at 10 µM.
Experiment [2] addresses T1, Alpha-2C adrenergic receptor (Homo sapiens, UniProt P18825).
T1 sequence (P18825 whole entry): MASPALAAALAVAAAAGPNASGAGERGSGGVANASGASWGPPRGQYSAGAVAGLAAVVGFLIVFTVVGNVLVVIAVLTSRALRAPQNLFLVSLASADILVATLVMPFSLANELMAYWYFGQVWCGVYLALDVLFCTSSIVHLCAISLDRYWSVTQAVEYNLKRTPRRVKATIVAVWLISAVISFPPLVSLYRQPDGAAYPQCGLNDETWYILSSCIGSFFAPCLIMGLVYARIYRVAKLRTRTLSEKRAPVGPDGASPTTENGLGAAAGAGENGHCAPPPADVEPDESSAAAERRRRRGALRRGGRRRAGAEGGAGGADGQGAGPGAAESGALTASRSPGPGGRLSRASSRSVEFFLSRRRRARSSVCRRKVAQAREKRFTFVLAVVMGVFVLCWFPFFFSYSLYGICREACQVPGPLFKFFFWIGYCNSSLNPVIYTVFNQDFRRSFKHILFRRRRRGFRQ
Briefly: DRUGMATRIX: Adrenergic Alpha-2C radioligand binding (ligand: [3H] MK-912). In kind it is cell membranes, Sf9, Membrane. Conditions: sf9.

Experiment [3] deals with Aldo-keto reductase family 1 member B1 (Rattus norvegicus, UniProt P07943). Description: biochemical. It is filed as tissue-based, Lens of camera-type eye.
A short description of experiment [4]: DRUGMATRIX: Potassium Channel [KATP] radioligand binding (ligand: [3H] Glyburide). In kind it is cell membranes, Membrane. Conditions: hit-t15; Not Active = under 50% inhibition at 10 µM.
Experiment [5] is described as follows: DRUGMATRIX: Glutamate, NMDA, Phencyclidine radioligand binding (ligand: [3H] TCP). In kind it is cell membranes, Rattus norvegicus, Wistar, Cerebral cortex, Membrane. Conditions: Not Active = under 50% inhibition at 10 µM.

C-C chemokine receptor type 2, sequence (P41597 whole entry): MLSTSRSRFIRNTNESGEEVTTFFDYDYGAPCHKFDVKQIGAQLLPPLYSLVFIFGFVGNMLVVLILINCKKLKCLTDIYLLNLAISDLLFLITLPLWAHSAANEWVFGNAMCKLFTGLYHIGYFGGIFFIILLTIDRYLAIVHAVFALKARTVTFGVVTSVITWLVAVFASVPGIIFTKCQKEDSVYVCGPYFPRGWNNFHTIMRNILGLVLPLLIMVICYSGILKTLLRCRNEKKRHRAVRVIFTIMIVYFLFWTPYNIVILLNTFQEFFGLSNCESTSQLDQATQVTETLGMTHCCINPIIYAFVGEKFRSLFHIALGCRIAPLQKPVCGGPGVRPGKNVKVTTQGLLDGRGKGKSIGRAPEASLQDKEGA

Consider `O=C(O)c1cccnc1` [NIACIN], for which the 50% inhibitory concentration (IC50) result in experiment [1], in experiment [2], in experiment [3], in experiment [4] and in experiment [5] was “Not Active” each time. The Ki result in experiment [4] and in experiment [5] was “Not Active” each time.

In the case of `CNC(=C[N+](=O)[O-])NCCSCc1csc(CN(C)C)n1` [NIZATIDINE], the IC50 entry in experiment [1], in experiment [2], in experiment [3], in experiment [4] and in experiment [5] was “Not Active” each time. Further, the Ki result in experiment [4] and in experiment [5] was “Not Active” throughout.

For the molecule `C[C@]12C/C(=C/O)C(=O)C[C@@H]1CC[C@@H]1[C@@H]2CC[C@@]2(C)[C@H]1CC[C@]2(C)O` [OXYMETHOLONE], the IC50 entry in experiment [1], in experiment [2], in experiment [3], in experiment [4] and in experiment [5] was “Not Active” in each case. The Ki result in experiment [4] and in experiment [5] was “Not Active” each time.

Take `CC(C)(CO)C(O)C(=O)NCCCO` (stereo not given) [PANTHENOL]: the IC50 result in experiment [1], in experiment [2], in experiment [3], in experiment [4] and in experiment [5] was “Not Active” each time. The Ki entry in experiment [4] and in experiment [5] was “Not Active” each time.

With `COc1ccc(Cc2nccc3cc(OC)c(OC)cc23)cc1OC` [PAPAVERINE], the IC50 result in experiment [1], in experiment [2], in experiment [3], in experiment [4] and in experiment [5] was “Not Active” each time. For the same molecule, the Ki result in experiment [4] and in experiment [5] was “Not Active” each time.

As to `OCCN1CCN(CCCN2c3ccccc3Sc3ccc(Cl)cc32)CC1` [PERPHENAZINE], the IC50 entry in experiment [1], in experiment [2], in experiment [3], in experiment [4] and in experiment [5] was “Not Active” in each case. The Ki result in experiment [4] and in experiment [5] was “Not Active” in each case.

For the molecule `CCCCC1C(=O)N(c2ccccc2)N(c2ccccc2)C1=O` [PHENYLBUTAZONE], the IC50 entry in experiment [1], in experiment [2], in experiment [3], in experiment [4] and in experiment [5] was “Not Active” each time. Moreover, the Ki result in experiment [4] and in experiment [5] was “Not Active” in each case.

`Cc1cccc(Nc2cc(Cl)nc(SCC(=O)O)n2)c1C` [PIRINIXIC ACID]: the IC50 entry in experiment [1] was “Not Active”; in experiment [2], “Not Active”; in experiment [3] (read-out: IC50) it was 2820 nM; in experiment [4], “Not Active”; in experiment [5], “Not Active”. The Ki result in experiment [4] and in experiment [5] was “Not Active” throughout.

`CC[C@H](C)C(=O)O[C@H]1C[C@H](O)C=C2C=C[C@H](C)[C@H](CC[C@@H](O)C[C@@H](O)CC(=O)O)[C@H]21` [PRAVASTATIN]: the IC50 result in experiment [1], in experiment [2], in experiment [3], in experiment [4] and in experiment [5] was “Not Active” throughout. The Ki entry in experiment [4] and in experiment [5] was “Not Active” each time.

With `CC(C)(Sc1cc(C(C)(C)C)c(O)c(C(C)(C)C)c1)Sc1cc(C(C)(C)C)c(O)c(C(C)(C)C)c1` [PROBUCOL], the IC50 result in experiment [1], in experiment [2], in experiment [3], in experiment [4] and in experiment [5] was “Not Active” each time. Also, the Ki result in experiment [4] and in experiment [5] was “Not Active” each time.

On to COBALT(II) ACETYLACETONATE, for which the IC50 result in experiment [1], in experiment [2], in experiment [3], in experiment [4] and in experiment [5] was “Not Active” each time. The Ki entry in experiment [1], in experiment [2], in experiment [3], in experiment [4] and in experiment [5] was “Not Active” each time.

On to INSULIN HUMAN, for which the half-inhibitory concentration (IC50) result in experiment [1], in experiment [2], in experiment [3], in experiment [4] and in experiment [5] was “Not Active” throughout. For the same molecule, the Ki entry in experiment [1], in experiment [2], in experiment [3], in experiment [4] and in experiment [5] was “Not Active” each time.

As to POLYVINYL ALCOHOL, the IC50 entry in experiment [1], in experiment [2], in experiment [3], in experiment [4] and in experiment [5] was “Not Active” each time. Also, the Ki entry in experiment [1], in experiment [2], in experiment [3], in experiment [4] and in experiment [5] was “Not Active” in each case.
